Experimental data taken from EP4603105A1, “PHARMACEUTICAL COMPOSITION CONTAINING CYCLIC COMPOUND HAVING SELECTIVE KRAS INHIBITORY EFFECT AGAINST HRAS AND NRAS” (CHUGAI SEIYAKU KABUSHIKI KAISHA, priority 2022, dated 2024).
*1 amine or outer side, *2 acyl side, *3 side chain or, on linkers, in order; H or OH if unused. Where a SMILES comes first, the peptide text is derived from it. Bridges are numbered along the chain shown (N, C = ends). [ ]: non-standard residue; d: D form. The star is where a group is joined. hPhe(3,5-F2-4-CF3) = N[C@@H](CCc1cc(F)c(C(F)(F)F)c(F)c1)C(=O)O; NPrPhe(4-CF3) = CCCN[C@@H](Cc1ccc(C(F)(F)F)cc1)C(=O)O; NMeGly(cPent) = CN[C@H](C(=O)O)C1CCCC1; X3 = CCC[C@](C)(N[*:1])C(=O)[*:2]; NMeD = CN[C@@H](CC(=O)O)C(=O)O; NMeL = CN[C@@H](CC(C)C)C(=O)O; Morpholide = C1CN(*)CCO1; Aze = O=C(O)[C@@H]1CCN1; Sar = CNCC(=O)O

Assays:
[1] = biological target: GDP-bound KRAS wild-type protein (Homo sapiens, UniProt P01116); test: Binding to KRAS by surface plasmon resonance (SPR), dissociation constant KD
How it was run: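 Each cycle, GDP-bound biotin-Avi RAS was captured (~100–300 RU), compound concentrations were injected low to high for 75 s each at 100 µL/min, then the chip was regenerated. Buffer: HBS pH 7.4, 10 mM MgCl2, 10 µM GDP, 1 mM DTT, 4% DMSO; 30°C. KD from a 1:1 binding model.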

[2] = biological target: GDP-bound NRAS wild-type protein (Homo sapiens, UniProt P01111); test: Binding to NRAS by surface plasmon resonance (SPR), KD and KD ratio to KRAS
How it was run: (§1)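 Affinity is measured by surface plasmon resonance at 30°C against captured, GDP-loaded RAS carrying a biotinylated Avi tag. Compounds are titrated by single-cycle kinetics, and KD comes from a 1:1 fit.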

HRAS wild-type protein = HRAS wild-type protein (Homo sapiens, UniProt P01112); test: Binding to HRAS by surface plasmon resonance (SPR), KD and KD ratio to KRAS
How it was run: as §1

[3] = test system: human lung cancer strain NCI-H441; assay type: cell-based
How it was run: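 Readout: […] after the ATP-based reagent. Compound: serial dilutions in dimethyl sulfoxide.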

[4] = ratio of KD for GDP-bound NRAS wild-type protein to KD for KRAS
[5] = ratio of KD for HRAS wild-type protein to KD for KRAS
[6] = Single Cycle Kinetics, 1:1 binding model
[7] = ratio of the KD value with respect to GDP-bound NRAS wild-type protein to the KD value with respect to KRAS
[8] = ratio of the KD value with respect to HRAS wild-type protein to the KD value with respect to KRAS

Sequence of GDP-bound NRAS wild-type protein (P01111 whole entry): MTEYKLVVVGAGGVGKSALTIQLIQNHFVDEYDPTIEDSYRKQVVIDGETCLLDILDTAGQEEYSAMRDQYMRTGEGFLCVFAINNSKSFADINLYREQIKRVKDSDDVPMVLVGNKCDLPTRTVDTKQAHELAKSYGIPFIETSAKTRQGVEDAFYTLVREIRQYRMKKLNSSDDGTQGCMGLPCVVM
Sequence of GDP-bound KRAS wild-type protein (P01116 1-188 isoform P01116-2): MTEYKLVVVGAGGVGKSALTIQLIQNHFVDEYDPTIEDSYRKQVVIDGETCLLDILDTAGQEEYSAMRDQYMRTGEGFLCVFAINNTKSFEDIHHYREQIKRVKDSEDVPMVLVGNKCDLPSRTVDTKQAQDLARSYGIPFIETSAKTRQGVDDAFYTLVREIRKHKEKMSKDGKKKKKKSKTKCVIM
Sequence of HRAS wild-type protein (P01112 whole entry): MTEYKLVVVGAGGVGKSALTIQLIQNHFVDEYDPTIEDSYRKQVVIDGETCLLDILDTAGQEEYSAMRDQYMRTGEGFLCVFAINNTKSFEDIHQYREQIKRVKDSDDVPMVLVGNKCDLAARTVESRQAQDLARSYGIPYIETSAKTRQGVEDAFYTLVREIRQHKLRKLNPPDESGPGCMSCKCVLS

Kd ([1]; 1:1 binding model)	IC50 [3]	Kd [1, 6]	Kd ([1]; Single Cycle Kinetics)	SMILES	NRAS /KRAS [2, 4]	HRAS /KRAS (HRAS wild-type protein; [5])	NRAS /KRAS [2, 7]	HRAS /KRAS (HRAS wild-type protein; [8])	NRAS /KRAS ([2]; ratio of KD value for GDP-bound NRAS wild-type protein to KD value for KRAS (SPR))	HRAS /KRAS (HRAS wild-type protein; ratio of KD value for HRAS wild-type protein to KD value for KRAS (SPR))
	7 nM	0.06 nM		CC[C@H](C)[C@@H]1NC(=O)[C@H](CC(C)C)N(C)C(=O)C[C@@H](C(=O)N2CCOCC2)N(C)C(=O)[C@H](C2CCCC2)N(C)C(=O)C2(CCCC2)NC(=O)[C@@H]2CCCN2C(=O)[C@H](CCc2ccc(C(F)(F)F)c(Cl)c2)NC(=O)CN(C)C(=O)[C@H](Cc2ccc(F)cc2)N2CCCC[C@@H](C2=O)N(C)C(=O)CN(C)C1=O [PP0530]			C (A compound having a KD ratio of 0.1 or more and less than 3 is denoted as C)	B (a compound having 3 or more and less than 10 is denoted as B)		
	417 nM		9.2 nM	CCCN1C(=O)CN(C)C(=O)[C@@H]2CCN2C(=O)[C@H]([C@@H](C)CC)NC(=O)[C@H](CC(C)C)N(C)C(=O)C[C@@H](C(=O)N2CCOCC2)N(C)C(=O)[C@H](C2CCCC2)N(C)C(=O)[C@](C)(CCC)NC(=O)[C@@H]2CCCN2C(=O)[C@H](CCc2cc(F)c(C(F)(F)F)c(F)c2)NC(=O)CN(C)C(=O)[C@@H]1Cc1ccc(C(F)(F)F)cc1 [PP0775] ([NMeL]I[Aze][Sar][NPrPhe(4-CF3)][Sar][hPhe(3,5-F2-4-CF3)]P[X3][NMeGly(cPent)][NMeD]-Morpholide; lactam N-11)	B (a compound having 3 or more and less than 10 is denoted as B)	B (a compound having 3 or more and less than 10 is denoted as B)				
	20.7 nM	0.15 nM		CCCN1C(=O)[C@H](C2CCCC2)N(C)C(=O)C2(CCC2)NC(=O)[C@@H]2C[C@@H](OCC)CN2C(=O)[C@H](CCc2cc(F)c(C(F)(F)F)c(F)c2)NC(=O)CN(C)C(=O)[C@H](Cc2ccc(C(F)(F)F)cc2)N2CCCC[C@@H](C2=O)N(C)C(=O)CN(C)C(=O)[C@H]([C@@H](C)CC)NC(=O)[C@H](CC)N(C)C(=O)C[C@H]1C(=O)N(C)C [PP0644]			C (A compound having a KD ratio of 0.1 or more and less than 3 is denoted as C)	B (a compound having 3 or more and less than 10 is denoted as B)		
	4.9 nM	0.057 nM		CC[C@H](C)[C@@H]1NC(=O)[C@H](CC)N(C)C(=O)C[C@@H](C(=O)N2CCOCC2)N(C)C(=O)[C@H](C2CCCC2)N(C)C(=O)C2(CCCC2)NC(=O)[C@@H]2CCCN2C(=O)[C@H](CCc2cc(F)c(C(F)(F)F)c(F)c2)NC(=O)CN(C)C(=O)[C@H](Cc2ccc(C(F)(F)F)cc2)N2CCCC[C@@H](C2=O)N(C)C(=O)CN(C)C1=O [PP0550]			B (a compound having 3 or more and less than 10 is denoted as B)	B (a compound having 3 or more and less than 10 is denoted as B)		

More lines, now with the values behind:

SMILES	Kd ([1]; 1:1 binding model)	IC50 [3]	Kd [1, 6]	Kd ([1]; Single Cycle Kinetics)	NRAS /KRAS [2, 4]	HRAS /KRAS (HRAS wild-type protein; [5])	NRAS /KRAS [2, 7]	HRAS /KRAS (HRAS wild-type protein; [8])	NRAS /KRAS ([2]; ratio of KD value for GDP-bound NRAS wild-type protein to KD value for KRAS (SPR))	HRAS /KRAS (HRAS wild-type protein; ratio of KD value for HRAS wild-type protein to KD value for KRAS (SPR))
C#CC[C@H]1C(=O)N[C@@H]([C@@H](C)CC)C(=O)N(C)CC(=O)N(C)[C@H]2C/C=C\CCN(C2=O)[C@@H](Cc2ccc(C(F)(F)F)cc2)C(=O)N(C)CC(=O)N[C@@H](CCc2ccc(C(F)(F)F)c(OC)c2)C(=O)N2C[C@H](F)C[C@H]2C(=O)NC2(CC(C)(C)C2)C(=O)N(C)[C@@H](CCC=C)C(=O)N(C)[C@H](C(=O)N(C)C)CC(=O)N1C [PP3126]	0.81 nM	116 nM			AA (a compound having 20 or more is denoted as AA)	A (a compound having 10 or more and less than 20 is denoted as A)				
CCCOC[C@H]1C(=O)N[C@@H]([C@@H](C)CC)C(=O)N(C)CC(=O)N(C)[C@H]2C/C=C\CCN(C2=O)[C@@H](Cc2ccc(C)cc2)C(=O)N(C)CC(=O)N[C@@H](CCc2ccc(C(F)(F)F)c(OC)c2)C(=O)N2C[C@H](OCC)C[C@H]2C(=O)N(C)C2(CCC2)C(=O)N(C)[C@@H](C2CCCC2)C(=O)N(C)[C@H](C(=O)N(C)C)CC(=O)N1C [PP2326]		1.6 nM	0.031 nM				A (a compound having 10 or more and less than 20 is denoted as A)	B (a compound having 3 or more and less than 10 is denoted as B)		
CCC[C@H]1C(=O)N[C@@H]([C@@H](C)CC)C(=O)N(C)CC(=O)N(C)[C@H]2C/C=C\CCN(C2=O)[C@@H](Cc2ccc(C)cc2)C(=O)N(C)CC(=O)N[C@@H](CCc2ccc(C(F)(F)F)c(OC)c2)C(=O)N2C[C@H](C)C[C@H]2C(=O)NC2(CC(C)(C)C2)C(=O)N(C)[C@@H](C2CCCC2)C(=O)N(C)[C@H](C(=O)N(C)C)CC(=O)N1C [PP1890]		3.6 nM	0.15 nM						A (a compound having 10 or more and less than 20 is denoted as A)	B (a compound having 3 or more and less than 10 is denoted as B)
